Test results taken from patent publication US11286268B1, “EIF4E-inhibiting compounds and methods” (EFFECTOR THERAPEUTICS, INC., priority 2019, dated 2022).
Read-outs that look alike come from different tables or passages of the source.

Molecular target: recombinant eIF4E (Homo sapiens (Human), UniProt P06730)
Test: Fluorescence polarization competition assay for eIF4E binding potency
Outline: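 Competitive displacement format: compounds compete with a fluorescent m7GDP tracer (20 nM) for 75 nM recombinant eIF4E. Incubation is 30 min at room temperature, protected from light, with 1% DMSO. Polarization read gives IC50 over eight 3-fold concentrations.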

[1] = fluorescence polarization competition, 75 nM recombinant eIF4E, 20 nM EDA-m7GDP-ATTO-550, IC50 class, read-out: elF4E FP
[2] = inhibition of eIF4E/EDA-m7GDP-ATTO-550 binding, calculated IC50 values, Table 4B, read-out: IC50
[3] = inhibition of eIF4E/EDA-m7GDP-ATTO-550 binding by 50%, Table 4B calculated values, read-out: IC50

Chain of recombinant eIF4E (P06730 whole entry): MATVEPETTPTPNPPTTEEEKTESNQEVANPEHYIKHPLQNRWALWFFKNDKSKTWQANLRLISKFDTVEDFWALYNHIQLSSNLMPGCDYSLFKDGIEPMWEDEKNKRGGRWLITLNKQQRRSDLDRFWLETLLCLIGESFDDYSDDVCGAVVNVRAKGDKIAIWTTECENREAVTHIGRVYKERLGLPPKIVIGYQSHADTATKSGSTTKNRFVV

Structure (SMILES)	IC50 [1]	IC50 [2]	IC50 [3]
Cc1cc(-c2cc(Cl)ccc2OCCn2c(C)nc3ccc(N4CCN(C)CC4)cc3c2=O)c2scc(C(=O)O)c2n1 [compound 811]	50 to 1000 nM		
Cc1nc2c(F)cc(C(F)F)c(C#N)c2c(=O)n1CCOc1ccc(Cl)cc1-c1ccnc2c(C(=O)O)csc12 [compound 1944]		24.9 nM	
Cc1nc2cnc(N(C)C3CCN(C)C3)c(C#N)c2c(=O)n1CCOc1ccc(Cl)cc1-c1ccnc2c(C(=O)O)csc12 (stereo not shown) [compound 1323]		73 nM	
CCc1cc(-c2cc(Cl)ccc2OCCn2c(C)nc3cc(CN(C)C)c(OC(F)F)c(C#N)c3c2=O)c2scc(C(=O)O)c2n1 [compound 639]	< 50 nM		
Cc1cc(-c2cc(Cl)ccc2OCCn2c(C)nc3cc(C(F)(F)F)c(N4CCC(C)(C)CC4)nc3c2=O)c2scc(C(=O)O)c2n1 [compound 801]	< 50 nM		17 nM
Cc1nc2cc(Cl)c(C(F)F)c(C#N)c2c(=O)n1CCOc1ccc(Cl)cc1-c1ccnc2c(C(=O)O)csc12 [compound 1951]		19.9 nM	
Cc1nc2c(C#N)c(C(F)(F)F)cc(C#N)c2c(=O)n1CCOc1ccc(Cl)cc1-c1ccnc2c(C(=O)O)csc12 [compound 210]	50 to 1000 nM		91 nM
Cc1cc(-c2cc(Cl)ccc2OCCn2c(C)nc3cnc(C)c(C#N)c3c2=O)c2scc(C(=O)O)c2n1 [compound 419]	< 50 nM		
Cc1cc(-c2cc(Cl)ccc2OCCn2c(C)nc3cc(C(F)F)c(O)c(C#N)c3c2=O)c2scc(C(=O)O)c2n1 [439b]			32 nM
Cc1nc2c(F)cc(C(F)F)c(C#N)c2c(=O)n1CCOc1ccc(Cl)cc1-c1ccnc2c(C(=O)O)csc12 [compound 22]	< 50 nM		24.9 nM
Cc1nc2c(OC(F)(F)F)ccc(C#N)c2c(=O)n1CCOc1ccc(Cl)cc1-c1ccnc2c(C(=O)O)csc12 [compound 313]	< 50 nM		34.5 nM
Cc1nc2cc(CN(C)Cc3cn(C)nn3)c(OC(F)F)c(C#N)c2c(=O)n1CCOc1ccc(Cl)cc1-c1ccnc2c(C(=O)O)csc12 [compound 651]	< 50 nM		21.8 nM
Cc1nc2cc(C(F)(F)F)cc(C#N)c2c(=O)n1CCOc1ccc(Cl)cc1-c1cccc2c(C(=O)O)c[nH]c12 [compound 322]	50 to 1000 nM		116 nM
Cc1cc(-c2cc(Cl)ccc2OCCn2c(C)nc3cc(C(F)F)c(-c4cc(F)cnc4C)c(C#N)c3c2=O)c2scc(C(=O)O)c2n1 [compound 438]	< 50 nM		9.16 nM
Cc1cc(-c2cc(Cl)ccc2OCCn2c(C)nc3c(-c4ccccc4)nc(N4CCN(C)CC4)c(C#N)c3c2=O)c2scc(C(=O)O)c2n1 [compound 1217]	< 50 nM	24.2 nM	
Cc1nc2cnc(C3CC3)c(C#N)c2c(=O)n1CCOc1ccc(Cl)cc1Sc1cccc(C(=O)O)n1 [compound 940]	50 to 1000 nM		470 nM
COc1c(C(F)(F)F)cc2nc(C)n(CCOc3ccc(Cl)cc3-c3cc(C)nc4c(C(=O)O)csc34)c(=O)c2c1C#N [compound 1036]	< 50 nM		3.51 nM
Cc1nc2cc(C(F)(F)F)c(CN(C)CC(F)F)c(C#N)c2c(=O)n1CCOc1ccc(Cl)cc1-c1ccnc2c(C(=O)O)csc12 [compound 525]	< 50 nM		34.7 nM
Cc1cc(-c2cc(Cl)ccc2OCCn2c(C)nc3cnc(N[N+](C)(C)C)c(C#N)c3c2=O)c2scc(C(=O)O)c2n1 [compound 1631]		16.1 nM	
CCc1cc(-c2cc(Cl)ccc2OCCn2c(C)nc3cc(C(F)(F)F)c(C4=CCN(C)CC4)c(C#N)c3c2=O)c2scc(C(=O)O)c2n1 [compound 1088]	50 to 1000 nM		53.3 nM

Structure (SMILES)	IC50 [1]	IC50 [2]	IC50 [3]
Cc1cc(-c2cc(Cl)ccc2OCCn2c(C)nc3cc(C(F)(F)F)c(N4CCN(C)CC4)cc3c2=O)c2scc(C(=O)O)c2n1 [compound 427]	< 50 nM		25 nM
Cc1nc2cnc(N3CCN(CC(F)F)CC3)c(C#N)c2c(=O)n1CC#Cc1ccc(Cl)cc1-c1ccnc2c(C(=O)NS(C)(=O)=O)csc12 [compound 1487]		25.4 nM	
Cc1nc2cnc(N(C)C3CCN(C4CCC4(F)F)CC3)c(C#N)c2c(=O)n1CC#Cc1ccc(Cl)cc1-c1ccnc2c(C(=O)O)csc12 (stereo not shown) [compound 1166]	< 50 nM		28.6 nM
Cc1cc(-c2cc(Cl)ccc2OCCn2c(C)nc3cc(C(F)(F)F)c(C4=CCN(C)CC4)c(C#N)c3c2=O)c2scc(C(=O)O)c2n1 [compound 373]	< 50 nM		6.43 nM
Cc1cc(-c2cc(Cl)ccc2OCCn2c(C)nc3cc(N4C[C@@H](C)N(C)[C@@H](C)C4)c(F)c(C#N)c3c2=O)c2sc(C)c(C(=O)O)c2n1 [1090b]			503 nM
Cc1nc2cnc(OC3CCN(CC(F)(F)F)CC3)c(C#N)c2c(=O)n1CCOc1ccc(Cl)cc1-c1ccnc2c(C(=O)O)csc12 [compound 820]	< 50 nM		13.6 nM
Cc1cc(-c2cc(Cl)ccc2OCCn2c(C)nc3cc(C)c(C)c(C#N)c3c2=O)c2scc(C(=O)O)c2n1 [compound 628]	< 50 nM		28.5 nM
Cc1nc2cc(C(F)(F)F)cc(C#N)c2c(=O)n1CCOc1ccc(Cl)cc1-c1coc2c(C(=O)O)cccc12 [compound 300]	< 50 nM		24.3 nM
Cc1nc2cc(Cl)c(C(F)F)c(C#N)c2c(=O)n1CCOc1ccc(Cl)cc1-c1ccnc2c(C(=O)O)csc12 [compound 119]	< 50 nM		19.9 nM
Cc1nc2cnc(N(C)C3CCN(CC(C)F)CC3)c(C#N)c2c(=O)n1CCOc1ccc(Cl)cc1-c1ccnc2c(C(=O)O)csc12 (stereo not shown) [compound 1654]		21 nM	
Cc1nc2cc(Cl)c(CN(C)C)c(C#N)c2c(=O)n1CCOc1ccc(Cl)cc1-c1ccnc2c(C(=O)O)csc12 [compound 509]	50 to 1000 nM		125 nM
Cc1nc2c(C(F)F)ccc(C#N)c2c(=O)n1CCOc1ccc(Cl)cc1-c1cccc(C(=O)O)c1 [compound 37]	< 50 nM		39.6 nM
Cc1cc(-c2cc(Cl)ccc2OCCn2c(C)nc3cc(C(F)(F)F)c(-c4ccc(F)c(C)n4)c(C#N)c3c2=O)c2scc(C(=O)O)c2n1 [compound 1909]		29.2 nM	
COc1ccc(-c2csc3c(-c4cc(Cl)ccc4OCCn4c(C)nc5cnc(N6CCN(C)CC6)c(C#N)c5c4=O)ccnc23)cc1 [compound 1268]		472 nM	
Cc1cc(-c2cc(Cl)ccc2OCCn2c(C)nc3cc(Cl)c(Nc4cccnc4)c(C#N)c3c2=O)c2scc(C(=O)O)c2n1 [compound 700]	< 50 nM		22.4 nM
Cc1sc2c(-c3cc(Cl)ccc3OCCn3c(C)nc4cc(C(F)(F)F)c(N5CCN(C)CC5)c(C#N)c4c3=O)ccc(F)c2c1C(=O)O [compound 1286]		34.2 nM	
Cc1nc2cc(C(F)(F)F)cc(C#N)c2c(=O)n1CCOc1ccc(Cl)cc1-c1cc(C(N)=O)nc2c(C(=O)O)csc12 [compound 445]	50 to 1000 nM		
Cc1nc2cc(C(F)F)c(OC(F)(F)F)c(C#N)c2c(=O)n1CCOc1ccc(Cl)cc1-c1ccnc2c(C(=O)O)csc12 [compound 551]	< 50 nM		29.2 nM
O=C(O)c1cccc(-c2cc(Cl)ccc2OCCc2cc(C(F)(F)F)nc3nc(Nc4ccccc4)[nH]c(=O)c23)c1 [compound 178]	50 to 1000 nM		140 nM
Cc1nc2cnc(N3CCN(C(C)(C)CF)CC3)c(C#N)c2c(=O)n1CCOc1ccc(Cl)cc1-c1ccnc2c(C(=O)NS(C)(=O)=O)csc12 [compound 1483]		13.7 nM	
